The values that follow come from PubChem BioAssay (NCI).

Among the test systems are SF-268 CNS; KM12 colon; 786-0 renal; IGROV1 ovarian; A498 renal; CCRF-CEM leukemia; SF-539 CNS; NCI-H522 lung; SR leukemia; LOX IMVI melanoma.
Holding throughout (assay): NCI-60 cell line screen, 48 h

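Following 48 hours of exposure in 96-well plates, responses at five concentrations were used to interpolate endpoints linearly. GI50 = concentration required for 50% inhibition of growth. TGI denotes the concentration required for complete inhibition of growth.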

Consider `Cc1ccc(S(=O)(=O)NC(CCC(=O)Nc2ccc(Cl)cc2)C(=O)Nc2ccc(Cl)cc2)cc1` (stereo not given), for which the GI50 with SF-268 CNS was 862 nM; in the test with KM12 colon, 112 nM; in the test on 786-0 renal, 726 nM; with IGROV1 ovarian, 852 nM; with A498 renal, 717 nM; in the test on CCRF-CEM leukemia it was 203 nM. Moreover, the GI50 with SF-539 CNS is 210 nM; with NCI-H522 lung, 496 nM; with SR leukemia, 197 nM; with LOX IMVI melanoma it was 258 nM. The TGI amounted to 8040 nM in the test with SF-268 CNS; 6000 nM in the test with KM12 colon; 5690 nM in the test on 786-0 renal; 8580 nM with IGROV1 ovarian; 5340 nM in the test with A498 renal; 7220 nM with CCRF-CEM leukemia. Further, the TGI amounted to 1540 nM with SF-539 CNS, 7010 nM in the test on NCI-H522 lung, 6760 nM with SR leukemia and 5630 nM in the test with LOX IMVI melanoma.

On to `O=C1c2ccccc2-c2c1c1ccccc1c(=O)n2CCO`, for which the TGI in the test on SF-268 CNS, in the test on KM12 colon, in the test with 786-0 renal, with IGROV1 ovarian, with A498 renal and with CCRF-CEM leukemia was > 100000 nM each time. The TGI in the test with SF-539 CNS was > 94100 nM; in the test on NCI-H522 lung it was > 100000 nM; in the test on SR leukemia, 22500 nM; in the test with LOX IMVI melanoma, > 100000 nM.

For the compound `COc1cc[nH]c1/C=C1\C(=O)Nc2ccc(F)c(C#C[C@@H](O)[C@@H](N)[C@@H](C)O)c21`, the GI50 in the test on SF-268 CNS is 663 nM; in the test with KM12 colon, 31.2 nM; in the test on 786-0 renal it was 708 nM; with IGROV1 ovarian, 618 nM; in the test with A498 renal it was 397 nM; in the test with CCRF-CEM leukemia, 709 nM. In addition, the GI50 with SF-539 CNS was 472 nM; with NCI-H522 lung it was 575 nM; in the test on SR leukemia it was 114 nM; in the test on LOX IMVI melanoma, 516 nM. For the same compound, the TGI in the test on SF-268 CNS is 2420 nM; in the test on KM12 colon, 2190 nM; in the test on 786-0 renal it was 3370 nM; with IGROV1 ovarian, 5240 nM; in the test on A498 renal, 955 nM; in the test with CCRF-CEM leukemia, 2350 nM. Besides, the TGI in the test on SF-539 CNS is 1120 nM; with NCI-H522 lung, 1770 nM; in the test with SR leukemia it was 1950 nM; in the test with LOX IMVI melanoma, 2500 nM.

As to `CCCCCCCCCCCCc1ccc(C(=O)/C=C/C(=O)O)cc1`, the GI50 with SF-268 CNS was 2640 nM; with KM12 colon, 11700 nM; with 786-0 renal, 2030 nM; with IGROV1 ovarian, 1950 nM; with A498 renal, 13200 nM; in the test with CCRF-CEM leukemia it was 547 nM. The GI50 with SF-539 CNS was 1730 nM; in the test on NCI-H522 lung it was 1980 nM; in the test on SR leukemia, 423 nM; in the test on LOX IMVI melanoma, 1450 nM. Besides, the TGI stood at 8280 nM in the test with SF-268 CNS; 25900 nM with KM12 colon; 4050 nM in the test with 786-0 renal; 3860 nM in the test on IGROV1 ovarian; 26700 nM in the test on A498 renal; 5290 nM in the test with CCRF-CEM leukemia. In addition, the TGI came out at 3330 nM in the test with SF-539 CNS, 4730 nM in the test with NCI-H522 lung, 3070 nM with SR leukemia and 2810 nM in the test with LOX IMVI melanoma.

With `O=C1C=C[C@]2(C[C@@H](c3cccc(C(F)(F)F)c3)O[C@@H](c3cccc(C(F)(F)F)c3)O2)O1`, the GI50 was 1500 nM in the test on SF-268 CNS; 3090 nM in the test with KM12 colon; 1350 nM in the test on 786-0 renal; 1660 nM in the test on IGROV1 ovarian; 1810 nM in the test on A498 renal; 2480 nM with CCRF-CEM leukemia. Besides, the GI50 with SF-539 CNS was 1430 nM; in the test on NCI-H522 lung, 1590 nM; with SR leukemia it was 674 nM; in the test with LOX IMVI melanoma it was 433 nM. The TGI was determined as 4140 nM in the test on SF-268 CNS; 13900 nM in the test with KM12 colon; 2950 nM in the test with 786-0 renal; 4410 nM with IGROV1 ovarian; 9210 nM in the test on A498 renal; 13100 nM in the test with CCRF-CEM leukemia. For the same compound, the TGI with SF-539 CNS amounted to 3310 nM; in the test on NCI-H522 lung, 3990 nM; in the test with SR leukemia it was 5400 nM; in the test with LOX IMVI melanoma, 1710 nM.
